# Earlier results, collected in patent US20010008638A1, “N[…] LEAST ONE […] AT LEAST ONE ANTI-ESTROGEN COMPOUND IN A TIME-RELEASE DOSAGE FORM” (priority 1999, published 2001).
# Conditions: fold more potent than testosterone
compound,measurement,value
"C[C@]12CCC(=O)C[C@@H]1CC[C@@H]1[C@@H]2CC[C@]2(C)[C@@H](O)CC[C@@H]12 [DHT, dihydrotestosterone]",potency relative to testosterone,~10 times
